Results: patent US6635664B1, “Insecticide compositions and method for destroying insects” (priority 1999, dated 2003)
Several values for one entry are separate records, joined by “and”; a condition that tells them apart may be missing. Equal values may be shown once.

How the values were obtained:
silverleaf whiteflies [1] = assay: Test Example 1: spray test on cabbage seedlings infested with silverleaf whiteflies; type: in vivo; details: 50 ppm, total of adults and larvae on cabbage seedlings; for Number of surviving insects/pot after 8 days: 8 days after spray treatment; for Number of surviving insects/pot before: just before treatment
Protocol: (§1) Cabbage seedlings planted in 3 ounces plastic cup were placed in a net cage containing many living silverleaf whiteflies for 24 hours, so that many silverleaf whiteflies became parasitic on the cabbage seedlings. A designated amount of each of pyriproxyfen EC (commercial name, Lano emulsifiable concentrate : produced by Sumitomo Chemical Co., Ltd.), chlothianidine EC (emulsifiable concentrate prepared by mixing 10 parts of chlothianidine, 8 parts of polyoxyethylenealkyl aryl ether, 2 parts of sodium alkylarylsulfonate and 80 parts of xylene), and the present invention composition prepared according to formulation example 1 was diluted with water, and then sprayed over the cabbage seedlings with a spray gun. The number of silverleaf whiteflies (i.e., the total number of adults and larvae) surviving on the cabbage seedlings was examined just before and after 8 days from the treatment.

silverleaf whiteflies [2] = assay: Test Example 2: spray test on cabbage seedlings infested with silverleaf whiteflies (10:1 and 1:10 mixtures); type: in vivo; details: 10 ppm; just before treatment; total of adults and larvae on cabbage seedlings
Protocol: as §1, with “pyriproxyfen EC.” for “pyriproxyfen EC”, “emulsifiable concentrate:” for “emulsifiable concentrate :”, “prepared by mixing the pyriproxyfen EC with chlothianidine EC at 10:1 and 1:10 by weight” for “prepared according to formulation example 1”

| SMILES | Number of surviving insects/pot after 8 days (silverleaf whiteflies [1]) [insects/pot] | Number of surviving insects/pot before (silverleaf whiteflies [1]) [insects/pot] | Number of surviving insects/pot before (silverleaf whiteflies [2]) |
| --- | --- | --- | --- |
| CC(COc1ccc(Oc2ccccc2)cc1)Oc1ccccn1 (centres unmarked) [pyriproxyfen, 4-phenoxyphenyl 2-(2-pyridyloxy)propyl ether] | 21 | 65 | 81 insects/pot and 62 insects/pot |
| CN/C(=N\[N+](=O)[O-])NCc1cnc(Cl)s1 [chlothianidine, (E)-1-(2-chlorothiazol-5-ylmethyl)-3-methyl-2-nitroguanidine] | 70 | 66 |  |
